Activity and EC50 data for 5 compounds are collected here from ChEMBL document CHEMBL1158302, “Makaluvic acids A and B: novel alkaloids from the marine sponge Zyzzya fuliginosus” (1996).

Converted amounts (≈) assume the structure as drawn. The source made the active and inactive calls. No cut-off for these calls is given here.

This assay concerns P388. The assay can be described thus: Cytotoxicity against mouse P388 cells. As to conditions: for EC50: read-out: ED50 (the source's name). The class given is functional.

With `CN1CCc2c[nH]c(C(=O)O)c2C1=O`, the result was inactive.

Take `Cn1cnc2c1c(N)nc(=O)n2C`: the result was inactive.

`Cn1cc2c3c1C(=O)C(N)=CC3=NCC2` [MAKALUVAMINE A]: the EC50 was 0.4 µg/mL (≈ 1.99 µM).

Consider `Cn1cc2c3c1C(=O)C(N/C=C/c1ccc(O)cc1)=CC3=NCC2` [MAKALUVAMINE E], for which the EC50 was determined as 0.6 µg/mL (≈ 1.88 µM).

For the compound `Cn1cc2c3c1C(=O)C(NCCc1ccc(O)cc1)=CC3=NCC2` [MAKALUVAMINE K], the EC50 was determined as 0.7 µg/mL (≈ 2.18 µM).
